Measured values: patent EP3597653A1, “CYCLIC INHIBITORS OF HEPATITIS B VIRUS” (IRBM S.P.A., priority 2018, dated 2020)

Tested on: HBV
Assay: HBV inhibition assay in HepAD38 cells (extracellular HBV DNA by direct qPCR)
Type: cell-based
Conditions: Hepatitis B virus, 8-point dose-response curve, 96 hours, read-out: HBV inh EC50
Text: HepAD38 cell line (Ladner et al., Antimicrob Agents Chemother, 1997, 41, 1715-20) was used for HBV inhibition assays. HepAD38 is a subclone, derived from Hepatoblastoma cell line HepG2 (ATCC® Number: HB-8065™), that expresses HBV genome under the control of a tetracycline-responsive promoter in a TET-OFF system: addition of tetracycline suppresses HBV replication, while its removal switches on the process allowing HBV viral particles release in the cell supernatant. HepAD38 cell line is maintained in DMEM/F12, supplemented with 10% of fetal bovine serum, 1% of glutamine, 1% of penicillin/streptomycin, 0.4 mg/ml G418 and 0,3 ug/ml tetracycline. For the HBV inhibition assay, doxycycline-free medium is used in order to allow virion production.
HBV inhibition activity in vitro was performed in 96 multiwell plates. During the initial (primary) screening compounds were first tested in triplicates at concentrations of 0.1µM, 0.5µM amd 1µM. For selected compounds, an 8-point dose-response curve can be obtained using 1:2 serial dilutions (starting from 2.5 µM, 1.25µM or 0.4 µM, depending on the degree of inhibition observed during the primary screening). From the dose-response curves, half maximal effective concentration (EC50) can be calculated (see also below).
In more detail, compounds - typically dissolved in DMSO stock solutions - are diluted to 2x the final desired concentration in 100 µl of the above medium (without doxycycline) and plated in three replicates in the 96-well plates.
Simultaneously, HepAD38 cells - extensively pre-washed in tetracycline-free medium in order to induce HBV production - are suspended at 2*10^4 cells in 100 µl of tetracycline-free medium and added to each well of the plate, to yield a final assay volume of 200 µl DMSO - used for stock solutions and compounds dilutions - which is always present in the assays at a final concentration of 0.5%.
Plates are then incubated 96 hours at 37°C and then subjected to cell viability assay in order to define compounds cytotoxicity and to extracellular HBV quantification in order to evaluate antiviral activity of compounds. Cytotoxicity is assessed by a commercial fluorescence assay that measures the metabolic activity of cells, directly related to cell viability (Cell Titer Blue, Promega). Anti-HBV activity was evaluated by quantification of extracellular HBV DNA with direct qPCR. In particular, supernatant was collected and centrifuged for cell debris clarification, viral DNA was extracted from virions by addition of lysis buffer (1 mM 1,4-dithiothreitol, 0.2% sodium dodecyl sulphate) and incubated at 95°C for 10 min. Samples were then diluted 1:40 and real time PCR amplification was performed with SYBR green assay (Power SYBR™ Green PCR Master Mix-Thermo Fisher Scientific) and specific HBV primer (HBV-DF:5'-[…]-3' (SEQ ID No. 1), HBV-DR:5'-[…]-3' (SEQ ID No. 2)).
All HBV inhibition or antiviral activity data are typically reported in percent (%) relative to a non-treated reference sample. Excel and Graphpad Prism programs are typically used for data elaboration and EC50 calculation.

Question: With O=C(Nc1cc(F)c(F)c(F)c1)c1ccc2c(c1)S(=O)(=O)N[C@]1(N2)C(=O)Nc2ccccc21 (single isomer, unassigned) [Example E129] as the molecule, how does the EC50 read?
Answer: Its EC50 is over 1000 nM.

Question: With O=C(Nc1cc(F)c(F)c(F)c1)c1ccc2c(c1)S(=O)(=O)NC(c1nccs1)N2 (centres unmarked) [Example E49, 3-(thiazol-2-yl)-N-(3,4,5-trifluorophenyl)-3,4-dihydro-2H-benzo[e][1,2,4]thiadiazine-7-carboxamide 1,1-dioxide] as the molecule, how does the EC50 read?
Answer: Its EC50 is under 1000 nM.

Question: Which EC50 does the source give for O=C(Nc1cc(F)c(F)c(F)c1)c1cc2c(cc1F)NCNS2(=O)=O [Example E71, 6-fluoro-N-(3,4,5-trifluorophenyl)-3,4-dihydro-2H-benzo[e][1,2,4]thiadiazine-7-carboxamide 1,1-dioxide] here?
Answer: The EC50 was under 1000 nM.

Same assay, conditions: Hepatitis B virus, compound at 0.1 µM, 96 hours, relative to non-treated reference, read-out: Anti HBV Activity (conc µM)

Question: For O=C(Nc1ccc(F)c(Cl)c1)c1ccc2c(c1)S(=O)(=O)N([C@H]1CC[C@H](O)CC1)C(=O)N2 [Example E123, N-(3-chloro-4-fluorophenyl)-2-((1r,4r)-4-hydroxycyclohexyl)-3-oxo-3,4-dihydro-2H-benzo[e][1,2,4]thiadiazine-7-carboxamide 1,1-dioxide], which inhibition at 0.1 µM is on record?
Answer: Its inhibition at 0.1 µM is over 50%.

Same assay, conditions: Hepatitis B virus, compound at 0.5 µM, 96 hours, relative to non-treated reference, read-out: Anti HBV Activity (conc µM)

Question: With O=C(Nc1cc(F)c(F)c(F)c1)c1ccc2c(c1)S(=O)(=O)N(C1COC1)C(=O)N2 [Example E82, 2-(oxetan-3-yl)-3-oxo-N-(3,4,5-trifluorophenyl)-3,4-dihydro-2H-benzo[e][1,2,4]thiadiazine-7-carboxamide 1,1-dioxide] as the molecule, how does the inhibition at 0.5 µM read?
Answer: The inhibition at 0.5 µM was over 50%.

Question: For O=C(Nc1ccc(F)c(Cl)c1)c1ccc2c(c1)S(=O)(=O)NCN2 [Example E65, N-(3-chloro-4-fluorophenyl)-3,4-dihydro-2H-benzo[e][1,2,4]thiadiazine-7-carboxamide 1,1-dioxide], which inhibition at 0.5 µM is on record?
Answer: The inhibition at 0.5 µM was over 50%.

Question: With Cc1cc2c(cc1C(=O)Nc1cc(F)c(F)c(F)c1)S(=O)(=O)NCN2 [Example E9, 6-methyl-N-(3,4,5-trifluorophenyl)-3,4-dihydro-2H-benzo[e][1,2,4]thiadiazine-7-carboxamide 1,1-dioxide] as the molecule, how does the inhibition at 0.5 µM read?
Answer: The inhibition at 0.5 µM was over 50%.

Question: For CC(C)(C)OC(=O)N1CC[C@H](N2C(=O)Nc3ccc(C(=O)Nc4cc(F)c(F)c(F)c4)cc3S2(=O)=O)C1 [Example E83, tert-butyl (S)-3-(1,1-dioxido-3-oxo-7-((3,4,5-trifluorophenyl)carbamoyl)-3,4-dihydro-2H-benzo[e][1,2,4]thiadiazin-2-yl)pyrrolidine-1-carboxylate], which inhibition at 0.5 µM is on record?
Answer: Its inhibition at 0.5 µM is under 50%.

Question: With O=C(Nc1cc(F)c(F)c(F)c1)c1ccc2c(c1)S(=O)(=O)NC1(N2)C(=O)Nc2ncccc21 (centres unmarked) [Example E57, 2'-oxo-N-(3,4,5-trifluorophenyl)-1',2'-dihydro-2H,4H-spiro[benzo[e][1,2,4]thiadiazine-3,3'-pyrrolo[2,3-b]pyridine]-7-carboxamide 1,1-dioxide] as the molecule, how does the inhibition at 0.5 µM read?
Answer: The inhibition at 0.5 µM was over 50%.

Question: O=C(Nc1cc(F)c(F)c(F)c1)c1ccc2c(c1)S(=O)(=O)N(c1cccnc1)C(=O)N2 [Example E128, 3-oxo-2-(pyridin-3-yl)-N-(3,4,5-trifluorophenyl)-3,4-dihydro-2H-benzo[e][1,2,4]thiadiazine-7-carboxamide 1,1-dioxide] was tested. Which inhibition at 0.5 µM did it give?
Answer: The inhibition at 0.5 µM was under 50%.

Same assay, conditions: Hepatitis B virus, compound at 1 µM, 96 hours, relative to non-treated reference, read-out: Anti HBV Activity (conc µM)

Question: How did the inhibition at 1 µM turn out when O=C1Nc2ccc(C(=O)Nc3ccc(F)c(F)c3)cc2S(=O)(=O)N1 [Example E74, N-(3,4-difluorophenyl)-3-oxo-3,4-dihydro-2H-benzo[e][1,2,4]thiadiazine-7-carboxamide 1,1-dioxide] was run?
Answer: The inhibition at 1 µM was under 50%.

Question: For CC1=Nc2ccc(C(=O)Nc3ccc(F)c(F)c3)cc2S(=O)(=O)N1 [Example E67, N-(3,4-difluorophenyl)-3-methyl-2H-benzo[e][1,2,4]thiadiazine-7-carboxamide 1,1-dioxide], which inhibition at 1 µM is on record?
Answer: Its inhibition at 1 µM is under 50%.

Question: Which inhibition at 1 µM does the source give for O=C(Nc1cc(F)c(F)c(F)c1)c1ccc2c(c1)S(=O)(=O)N1CCC1CN2 (centres unmarked) [Example E107, N-(3,4,5-trifluorophenyl)-1,9,10,10a-tetrahydro-2H-azeto[1,2-b]benzo[f][1,2,5]thiadiazepine-6-carboxamide 4,4-dioxide] here?
Answer: The inhibition at 1 µM was under 50%.

Question: With O=C(Nc1cc(F)c(F)c(F)c1)c1ccc2c(c1)S(=O)(=O)N1CCCC[C@@H]1CO2 [Example E112, (R)-N-(3,4,5-trifluorophenyl)-1,2,3,4,12,12a-hexahydrobenzo[b]pyrido[1,2-e][1,4,5]oxathiazepine-8-carboxamide 6,6-dioxide] as the molecule, how does the inhibition at 1 µM read?
Answer: Its inhibition at 1 µM is under 50%.

Question: CC(C)OCCC1Nc2ccc(C(=O)Nc3cc(F)c(F)c(F)c3)cc2S(=O)(=O)N1 (centres unmarked) [Example E16, 3-(2-isopropoxyethyl)-N-(3,4,5-trifluorophenyl)-3,4-dihydro-2H-benzo[e][1,2,4]thiadiazine-7-carboxamide 1,1-dioxide] was tested. Which inhibition at 1 µM did it give?
Answer: The inhibition at 1 µM was over 50%.

Question: CN1CNc2ccc(C(=O)Nc3cc(F)c(F)c(F)c3)cc2S1(=O)=O [Example E6, 2-methyl-N-(3,4,5-trifluorophenyl)-3,4-dihydro-2H-benzo[e][1,2,4]thiadiazine-7-carboxamide 1,1-dioxide] was tested. Which inhibition at 1 µM did it give?
Answer: The inhibition at 1 µM was under 50%.

Question: With NCC1Nc2ccc(C(=O)Nc3cc(F)c(F)c(F)c3)cc2S(=O)(=O)N1 (centres unmarked) [Example E29, 3-(aminomethyl)-N-(3,4,5-trifluorophenyl)-3,4-dihydro-2H-benzo[e][1,2,4]thiadiazine-7-carboxamide 1,1-dioxide] as the molecule, how does the inhibition at 1 µM read?
Answer: The inhibition at 1 µM was over 50%.

Question: How did the inhibition at 1 µM turn out when O=C(Nc1ccc(F)c(F)c1)c1ccc2c(c1)S(=O)(=O)NC1(COC1)N2 [Example E11, N-(3,4-difluorophenyl)-2H,4H-spiro[benzo[e][1,2,4]thiadiazine-3,3'-oxetane]-7-carboxamide 1,1-dioxide] was run?
Answer: The inhibition at 1 µM was under 50%.

Question: Which inhibition at 1 µM does the source give for CN1CC2CCCCN2S(=O)(=O)c2cc(C(=O)Nc3cc(F)c(F)c(F)c3)ccc21 (centres unmarked) [Example E102, 11-methyl-N-(3,4,5-trifluorophenyl)-1,3,4,11,12,12a-hexahydro-2H-benzo[f]pyrido[1,2-b][1,2,5]thiadiazepine-8-carboxamide 6,6-dioxide] here?
Answer: The inhibition at 1 µM was under 50%.

Question: For O=C(Nc1cc(F)c(F)c(F)c1)c1ccc2c(c1)S(=O)(=O)NC(c1ccc(Cl)nc1)N2 (centres unmarked) [Example E52, 3-(6-chloropyridin-3-yl)-N-(3,4,5-trifluorophenyl)-3,4-dihydro-2H-benzo[e][1,2,4]thiadiazine-7-carboxamide 1,1-dioxide], which inhibition at 1 µM is on record?
Answer: The inhibition at 1 µM was over 50%.

Question: O=C(Nc1ccc(F)c(F)c1)c1ccc2c(c1)S(=O)(=O)NCN2 [Example E19, N-(3,4-difluorophenyl)-3,4-dihydro-2H-benzo[e][1,2,4]thiadiazine-7-carboxamide 1,1-dioxide] was tested. Which inhibition at 1 µM did it give?
Answer: The inhibition at 1 µM was over 50%.

Question: O=C(Nc1cc(F)c(F)c(F)c1)c1ccc2c(c1)S(=O)(=O)NC(c1cnc[nH]1)N2 (centres unmarked) [Example E51, 3-(1H-imidazol-5-yl)-N-(3,4,5-trifluorophenyl)-3,4-dihydro-2H-benzo[e][1,2,4]thiadiazine-7-carboxamide 1,1-dioxide] was tested. Which inhibition at 1 µM did it give?
Answer: The inhibition at 1 µM was under 50%.

Question: For O=C(Nc1cc(F)c(F)c(F)c1)c1ccc2c(c1)S(=O)(=O)N([C@H]1CC[C@H](O)CC1)C(=O)N2 [Example E80, trans-2-(4-hydroxycyclohexyl)-3-oxo-N-(3,4,5-trifluorophenyl)-3,4-dihydro-2H-benzo[e][1,2,4]thiadiazine-7-carboxamide 1,1-dioxide], which inhibition at 1 µM is on record?
Answer: The inhibition at 1 µM was over 50%.

Question: CC1Nc2ccc(C(=O)Nc3cc(F)c(F)c(F)c3)cc2S(=O)(=O)N1CCO (centres unmarked) [Example E63, 2-(2-hydroxyethyl)-3-methyl-N-(3,4,5-trifluorophenyl)-3,4-dihydro-2H-benzo[e][1,2,4]thiadiazine-7-carboxamide 1,1-dioxide] was tested. Which inhibition at 1 µM did it give?
Answer: Its inhibition at 1 µM is under 50%.

Question: How did the inhibition at 1 µM turn out when CC(=O)NC1=Nc2ccc(C(=O)Nc3cc(F)c(F)c(F)c3)cc2S(=O)(=O)N1 [Example E70, 3-acetamido-N-(3,4,5-trifluorophenyl)-2H-benzo[e][1,2,4]thiadiazine-7-carboxamide 1,1-dioxide] was run?
Answer: Its inhibition at 1 µM is under 50%.

Question: With O=C(Nc1cc(F)c(F)c(F)c1)c1ccc2c(c1)S(=O)(=O)N(CCO)CN2 [Example E62, 2-(2-hydroxyethyl)-N-(3,4,5-trifluorophenyl)-3,4-dihydro-2H-benzo[e][1,2,4]thiadiazine-7-carboxamide 1,1-dioxide] as the molecule, how does the inhibition at 1 µM read?
Answer: Its inhibition at 1 µM is under 50%.
